{"source": "patent US11548893B2", "about": "(priority 2017, dated 2023)", "key": {"[1]": {"system": "BDBV (mucin-deleted glycoprotein, VSV pseudotype)", "assay": "microbe, parasite or virus in culture", "format": "cell-based, Bundibugyo ebolavirus", "conditions": "Vesicular stomatitis virus, Vero, 24 h, read-out: EC50 Pseudotype Assays BDBV"}, "[2]": {"system": "SUDV (glycoprotein, VSV pseudotype)", "assay": "microbe, parasite or virus in culture", "format": "cell-based, Sudan ebolavirus", "conditions": "Vesicular stomatitis virus, Vero, 24 h, read-out: EC50 Pseudotype Assays SUDV"}, "[3]": {"assay": "in vitro", "conditions": "African green monkey, Cytotox CC50"}, "[4]": {"system": "EBOV (mucin-deleted glycoprotein, VSV pseudotype)", "assay": "microbe, parasite or virus in culture", "format": "cell-based, Zaire ebolavirus", "conditions": "Zaire ebolavirus, Vero, 24 h, read-out: EC50 Pseudotype Assays EBOV"}}, "data": [{"smiles": "CCC12CC3CC(C(=O)N4CC[C@H](N)[C@@H](F)C4)(C1)CC(c1ccccc1)(C3)C2", "note": "(mixture of isomers) [Example A24]", "values": [{"measurement": "EC50", "setting": "[1]", "value": 253, "unit": "nM"}, {"measurement": "EC50", "setting": "[2]", "value": 310, "unit": "nM"}, {"measurement": "CC50", "setting": "[3]", "value": 11200, "unit": "nM"}, {"measurement": "EC50", "setting": "[4]", "value": 203, "unit": "nM"}]}, {"smiles": "CCC12CC3CC(C(=O)NC4CCC5(CC4)CNC5)(C1)CC(c1ccccc1)(C3)C2", "note": "(racemic) [Example A27]", "values": [{"measurement": "EC50", "setting": "[1]", "value": 567, "unit": "nM"}, {"measurement": "EC50", "setting": "[2]", "value": 1750, "unit": "nM"}, {"measurement": "CC50", "setting": "[3]", "value": 7900, "unit": "nM"}, {"measurement": "EC50", "setting": "[4]", "value": 134, "unit": "nM"}]}, {"smiles": "CCOCC12CC3CC(C(=O)N[C@H]4CC[C@@H](N)CC4)(C1)CC(c1ccccc1)(C3)C2", "note": "(mixture of isomers) [Example A29]", "values": [{"measurement": "EC50", "setting": "[1]", "value": 790, "unit": "nM"}, {"measurement": "EC50", "setting": "[2]", "value": "> 1000", "unit": "nM"}, {"measurement": "CC50", "setting": "[3]", "value": 16300, "unit": "nM"}, {"measurement": "EC50", "setting": "[4]", "value": 62, "unit": "nM"}]}, {"smiles": "CC12CC3CC(C(=O)N4CCCNCC4)(C1)CC(c1ccccc1)(C3)C2", "note": "(racemic) [Example A34]", "values": [{"measurement": "EC50", "setting": "[1]", "value": 120, "unit": "nM"}, {"measurement": "EC50", "setting": "[2]", "value": 180, "unit": "nM"}, {"measurement": "CC50", "setting": "[3]", "value": 23600, "unit": "nM"}, {"measurement": "EC50", "setting": "[4]", "value": 90, "unit": "nM"}]}, {"smiles": "CCC1CNCCN1C(=O)C12CC3CC(C)(C1)CC(c1ccccc1)(C3)C2", "note": "(racemic) [Example A36]", "values": [{"measurement": "EC50", "setting": "[1]", "value": 229, "unit": "nM"}, {"measurement": "EC50", "setting": "[2]", "value": 130, "unit": "nM"}, {"measurement": "CC50", "setting": "[3]", "value": 8310, "unit": "nM"}, {"measurement": "EC50", "setting": "[4]", "value": 171, "unit": "nM"}]}, {"smiles": "CC1(N)CCN(C(=O)C23CC4CC(C)(C2)CC(c2ccccc2)(C4)C3)CC1", "note": "(racemic) [Example A37]", "values": [{"measurement": "EC50", "setting": "[1]", "value": 58.7, "unit": "nM"}, {"measurement": "EC50", "setting": "[2]", "value": 220, "unit": "nM"}, {"measurement": "CC50", "setting": "[3]", "value": 10900, "unit": "nM"}, {"measurement": "EC50", "setting": "[4]", "value": 58, "unit": "nM"}]}, {"smiles": "CC1CN(C(=O)C23CC4CC(C)(C2)CC(c2ccccc2)(C4)C3)CCC1N", "note": "(racemic) [Example A39]", "values": [{"measurement": "EC50", "setting": "[1]", "value": 91, "unit": "nM"}, {"measurement": "EC50", "setting": "[2]", "value": 210, "unit": "nM"}, {"measurement": "CC50", "setting": "[3]", "value": 13200, "unit": "nM"}, {"measurement": "EC50", "setting": "[4]", "value": 46, "unit": "nM"}]}, {"smiles": "CC1CC(N)CCN1C(=O)C12CC3CC(C)(C1)CC(c1ccccc1)(C3)C2", "note": "(racemic) [Example A40]", "values": [{"measurement": "EC50", "setting": "[1]", "value": 165, "unit": "nM"}, {"measurement": "EC50", "setting": "[2]", "value": 450, "unit": "nM"}, {"measurement": "CC50", "setting": "[3]", "value": 24600, "unit": "nM"}, {"measurement": "EC50", "setting": "[4]", "value": 69, "unit": "nM"}]}, {"smiles": "CC12CC3CC(C(=O)N4CCC5(CC5N)C4)(C1)CC(c1ccccc1)(C3)C2", "note": "(racemic) [Example A41]", "values": [{"measurement": "EC50", "setting": "[1]", "value": 209, "unit": "nM"}, {"measurement": "EC50", "setting": "[2]", "value": 680, "unit": "nM"}, {"measurement": "CC50", "setting": "[3]", "value": 27700, "unit": "nM"}, {"measurement": "EC50", "setting": "[4]", "value": 153, "unit": "nM"}]}, {"smiles": "CC12CC3CC(C(=O)N4C5CCC4CC(N)C5)(C1)CC(c1ccccc1)(C3)C2", "note": "(racemic) [Example A42]", "values": [{"measurement": "EC50", "setting": "[1]", "value": 190, "unit": "nM"}, {"measurement": "EC50", "setting": "[2]", "value": 460, "unit": "nM"}, {"measurement": "CC50", "setting": "[3]", "value": 11800, "unit": "nM"}, {"measurement": "EC50", "setting": "[4]", "value": 33, "unit": "nM"}]}, {"smiles": "CC12CC3CC(C(=O)N4CCCC(N)CC4)(C1)CC(c1ccccc1)(C3)C2", "note": "(racemic) [Example A43]", "values": [{"measurement": "EC50", "setting": "[1]", "value": 126, "unit": "nM"}, {"measurement": "EC50", "setting": "[2]", "value": 370, "unit": "nM"}, {"measurement": "CC50", "setting": "[3]", "value": 13000, "unit": "nM"}, {"measurement": "EC50", "setting": "[4]", "value": 147, "unit": "nM"}]}, {"smiles": "CC12CC3CC(C(=O)N4CCC5(CCN5)CC4)(C1)CC(c1ccccc1)(C3)C2", "note": "(racemic) [Example A51]", "values": [{"measurement": "EC50", "setting": "[1]", "value": 228, "unit": "nM"}, {"measurement": "EC50", "setting": "[2]", "value": 520, "unit": "nM"}, {"measurement": "EC50", "setting": "[4]", "value": 157, "unit": "nM"}]}, {"smiles": "N#CC12CC3CC(C(=O)N[C@H]4CC[C@H](N)CC4)(C1)CC(c1ccccc1)(C3)C2", "note": "(mixture of isomers) [Example A53]", "values": [{"measurement": "EC50", "setting": "[1]", "value": "> 1000", "unit": "nM"}, {"measurement": "EC50", "setting": "[2]", "value": "> 1000", "unit": "nM"}, {"measurement": "EC50", "setting": "[4]", "value": 670, "unit": "nM"}]}, {"smiles": "c1ccc(C23CC4CC(CC(CN5CCNCC5)(C4)C2)C3)cc1", "note": "[Example A67]", "values": [{"measurement": "EC50", "setting": "[1]", "value": "> 1000", "unit": "nM"}, {"measurement": "EC50", "setting": "[2]", "value": "> 1000", "unit": "nM"}, {"measurement": "EC50", "setting": "[4]", "value": "> 1000", "unit": "nM"}]}, {"smiles": "CC1(C)CN(CC23CC4C[C@@](C)(C2)C[C@](c2ccccc2)(C4)C3)CC[C@@H]1N", "note": "[Example B70]", "values": [{"measurement": "EC50", "setting": "[1]", "value": 930, "unit": "nM"}, {"measurement": "EC50", "setting": "[2]", "value": 1020, "unit": "nM"}, {"measurement": "EC50", "setting": "[4]", "value": 628, "unit": "nM"}]}, {"smiles": "CC1(C)CN(CC23CC4C[C@@](C)(C2)C[C@](c2ccccc2)(C4)C3)CC[C@H]1N", "note": "[Example B71]", "values": [{"measurement": "EC50", "setting": "[1]", "value": 1030, "unit": "nM"}, {"measurement": "EC50", "setting": "[2]", "value": "> 1000", "unit": "nM"}, {"measurement": "EC50", "setting": "[4]", "value": 1180, "unit": "nM"}]}, {"smiles": "C[C@@]12CC3CC(C(=O)N4CCC(N)C5(CC5)C4)(C1)C[C@](c1ccccc1)(C3)C2", "note": "(some centres unmarked) [Example C9]", "values": [{"measurement": "EC50", "setting": "[1]", "value": 150, "unit": "nM"}, {"measurement": "EC50", "setting": "[2]", "value": 620, "unit": "nM"}, {"measurement": "EC50", "setting": "[4]", "value": 269, "unit": "nM"}]}, {"smiles": "C[C@@]12CC3CC(C(=O)N4CC5(CC(N)C5)C4)(C1)C[C@](c1ccccc1)(C3)C2", "note": "[Example C11]", "values": [{"measurement": "EC50", "setting": "[1]", "value": 315, "unit": "nM"}, {"measurement": "EC50", "setting": "[2]", "value": 960, "unit": "nM"}, {"measurement": "EC50", "setting": "[4]", "value": 576, "unit": "nM"}]}, {"smiles": "CC1(C)CN(CC23CC4C[C@](C)(C2)C[C@@](c2ccccc2)(C4)C3)CC[C@@H]1N", "note": "[Example C70]", "values": [{"measurement": "EC50", "setting": "[1]", "value": 1020, "unit": "nM"}, {"measurement": "EC50", "setting": "[2]", "value": 1280, "unit": "nM"}, {"measurement": "EC50", "setting": "[4]", "value": "> 1000", "unit": "nM"}]}, {"smiles": "CC1(C)CN(CC23CC4C[C@](C)(C2)C[C@@](c2ccccc2)(C4)C3)CC[C@H]1N", "note": "[Example C71]", "values": [{"measurement": "EC50", "setting": "[1]", "value": "> 1000", "unit": "nM"}, {"measurement": "EC50", "setting": "[2]", "value": "> 1000", "unit": "nM"}, {"measurement": "EC50", "setting": "[4]", "value": "> 1000", "unit": "nM"}]}]}
